Assays:
insulin receptor = insulin receptor (Homo sapiens, UniProt P06213); assay: cellular autophosphorylation assay, transfected Chinese hamster ovary cells
Method: (§1) In vivo activity requires drugs to enter cells and therefore agents are tested in cellular autophosphorylation assays, using Chinese hamster ovary cells transfected with one of several RTK genes.

c-Kit = c-Kit (Homo sapiens, UniProt P10721); details: transfected Chinese hamster ovary cells
VEGF receptors = assay: cellular autophosphorylation assay, transfected Chinese hamster ovary cells
Method: as §1

C57BL/6 mice = assay: VEGF-induced BRB breakdown measured with [3H]mannitol as tracer after topical administration; assay type: in vivo; details: suspension topically in one eye twice a day for 3 days prior to intraocular injection of VEGF
Method: Intraocular injections are performed with a Harvard pump microinjection apparatus and pulled glass micropipets. Each micropipet is calibrated to deliver 1 μL of vehicle upon depression of a foot switch. Mice are anesthetized with 25 mg/kg of ketamine and 4 mg/kg of xylazine, pupils are dilated with 1% tropicamide. Under a dissecting microscope, the sharpened tip of a micropipet is passed through the sclera just behind the limbus into the vitreous cavity, and the foot switch is depressed and 1 μL of 10^−6 M human VEGF (R&D Systems, Minneapolis, Minn.) is injected.
Six or 24 hours after intraocular injections, mice are given an intraperitoneal injection of 1 μCi/g body weight of [^3H]mannitol (New England Nuclear, Boston, Mass.). After one hour, mice are sacrificed and eyes are removed. The cornea and lens are removed and the entire retina is carefully dissected from the eyecup and placed within pre-weighed scintillation vials. […] All liquid is removed from the vials and remaining droplets are allowed to evaporate over 20 minutes. The vials are weighed and the tissue weights are recorded. One mL of NCSII solubilizing solution (Amersham, Chicago, Ill.) is added to each vial and the vials are incubated overnight in a 50° C. water bath. The solubilized tissue is brought to RT and decolorized with 20% benzoyl peroxide in toluene in a 50° C. water bath. […]

c-erbB2 = c-erbB2 (Homo sapiens, UniProt P04626); assay: cellular autophosphorylation assay, transfected Chinese hamster ovary cells
c-erbB2, sequence (P04626 23-1255): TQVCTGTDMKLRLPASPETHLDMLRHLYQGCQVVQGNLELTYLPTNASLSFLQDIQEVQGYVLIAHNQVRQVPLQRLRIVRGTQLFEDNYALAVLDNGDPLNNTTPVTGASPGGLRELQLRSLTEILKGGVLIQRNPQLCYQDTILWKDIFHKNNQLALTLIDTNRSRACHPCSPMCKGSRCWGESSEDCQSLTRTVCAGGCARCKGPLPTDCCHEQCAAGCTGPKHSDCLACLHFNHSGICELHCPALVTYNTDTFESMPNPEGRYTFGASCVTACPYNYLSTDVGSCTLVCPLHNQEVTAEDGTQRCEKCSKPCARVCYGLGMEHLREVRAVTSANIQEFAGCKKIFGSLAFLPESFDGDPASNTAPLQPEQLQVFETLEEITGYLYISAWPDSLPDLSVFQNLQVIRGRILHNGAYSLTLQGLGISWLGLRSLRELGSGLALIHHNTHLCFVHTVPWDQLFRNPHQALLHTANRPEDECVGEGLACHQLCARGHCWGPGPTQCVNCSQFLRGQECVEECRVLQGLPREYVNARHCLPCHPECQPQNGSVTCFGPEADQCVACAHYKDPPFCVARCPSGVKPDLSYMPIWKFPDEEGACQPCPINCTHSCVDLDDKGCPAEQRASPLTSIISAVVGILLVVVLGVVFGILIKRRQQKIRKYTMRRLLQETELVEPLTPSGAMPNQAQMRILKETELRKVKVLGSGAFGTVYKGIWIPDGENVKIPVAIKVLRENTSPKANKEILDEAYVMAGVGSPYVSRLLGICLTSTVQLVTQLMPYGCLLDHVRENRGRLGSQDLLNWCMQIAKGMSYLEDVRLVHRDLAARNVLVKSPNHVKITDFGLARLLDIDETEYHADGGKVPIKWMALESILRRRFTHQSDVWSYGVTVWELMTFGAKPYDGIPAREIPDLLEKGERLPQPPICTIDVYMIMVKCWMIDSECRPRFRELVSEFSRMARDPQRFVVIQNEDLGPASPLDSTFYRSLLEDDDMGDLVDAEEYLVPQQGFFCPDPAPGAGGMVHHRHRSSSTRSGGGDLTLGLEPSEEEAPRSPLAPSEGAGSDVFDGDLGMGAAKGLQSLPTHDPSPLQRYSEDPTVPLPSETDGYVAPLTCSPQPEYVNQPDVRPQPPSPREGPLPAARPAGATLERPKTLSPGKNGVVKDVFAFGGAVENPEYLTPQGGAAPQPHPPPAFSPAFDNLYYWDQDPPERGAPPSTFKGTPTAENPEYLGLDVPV
Method: as §1

PDGF receptors = assay: as above; assay type: cell-based
Method: as §1

Flt-1 = target: T1, Flt-1 (Homo sapiens, UniProt P17948); assay: standard tyrosine kinase assay: phosphorylation of poly(GluTyr) by GST-fusion kinase domain; assay type: biochemical
T1 construct: GST-fusion proteins of the kinase domains of several tyrosine kinase receptors; GST
T1 sequence (P17948 827-1158 limits assumed): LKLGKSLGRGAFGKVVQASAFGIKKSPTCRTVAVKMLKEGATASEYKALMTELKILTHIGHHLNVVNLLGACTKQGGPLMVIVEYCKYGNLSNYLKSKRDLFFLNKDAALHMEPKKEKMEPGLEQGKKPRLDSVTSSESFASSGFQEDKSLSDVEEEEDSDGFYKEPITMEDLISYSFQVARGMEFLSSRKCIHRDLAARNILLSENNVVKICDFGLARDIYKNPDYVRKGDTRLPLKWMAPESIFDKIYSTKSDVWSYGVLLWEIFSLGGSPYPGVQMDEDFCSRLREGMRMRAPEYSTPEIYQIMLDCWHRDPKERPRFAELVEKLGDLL

[1] = tested on: other receptors tested including VEGF receptors; assay: cellular autophosphorylation assay, transfected Chinese hamster ovary cells
Method: as §1

[2] = tested on: other RTKs including VEGF receptors; assay: standard tyrosine kinase assay, other RTKs; assay type: biochemical

insulin receptor, sequence (P06213 28-1382, species assumed): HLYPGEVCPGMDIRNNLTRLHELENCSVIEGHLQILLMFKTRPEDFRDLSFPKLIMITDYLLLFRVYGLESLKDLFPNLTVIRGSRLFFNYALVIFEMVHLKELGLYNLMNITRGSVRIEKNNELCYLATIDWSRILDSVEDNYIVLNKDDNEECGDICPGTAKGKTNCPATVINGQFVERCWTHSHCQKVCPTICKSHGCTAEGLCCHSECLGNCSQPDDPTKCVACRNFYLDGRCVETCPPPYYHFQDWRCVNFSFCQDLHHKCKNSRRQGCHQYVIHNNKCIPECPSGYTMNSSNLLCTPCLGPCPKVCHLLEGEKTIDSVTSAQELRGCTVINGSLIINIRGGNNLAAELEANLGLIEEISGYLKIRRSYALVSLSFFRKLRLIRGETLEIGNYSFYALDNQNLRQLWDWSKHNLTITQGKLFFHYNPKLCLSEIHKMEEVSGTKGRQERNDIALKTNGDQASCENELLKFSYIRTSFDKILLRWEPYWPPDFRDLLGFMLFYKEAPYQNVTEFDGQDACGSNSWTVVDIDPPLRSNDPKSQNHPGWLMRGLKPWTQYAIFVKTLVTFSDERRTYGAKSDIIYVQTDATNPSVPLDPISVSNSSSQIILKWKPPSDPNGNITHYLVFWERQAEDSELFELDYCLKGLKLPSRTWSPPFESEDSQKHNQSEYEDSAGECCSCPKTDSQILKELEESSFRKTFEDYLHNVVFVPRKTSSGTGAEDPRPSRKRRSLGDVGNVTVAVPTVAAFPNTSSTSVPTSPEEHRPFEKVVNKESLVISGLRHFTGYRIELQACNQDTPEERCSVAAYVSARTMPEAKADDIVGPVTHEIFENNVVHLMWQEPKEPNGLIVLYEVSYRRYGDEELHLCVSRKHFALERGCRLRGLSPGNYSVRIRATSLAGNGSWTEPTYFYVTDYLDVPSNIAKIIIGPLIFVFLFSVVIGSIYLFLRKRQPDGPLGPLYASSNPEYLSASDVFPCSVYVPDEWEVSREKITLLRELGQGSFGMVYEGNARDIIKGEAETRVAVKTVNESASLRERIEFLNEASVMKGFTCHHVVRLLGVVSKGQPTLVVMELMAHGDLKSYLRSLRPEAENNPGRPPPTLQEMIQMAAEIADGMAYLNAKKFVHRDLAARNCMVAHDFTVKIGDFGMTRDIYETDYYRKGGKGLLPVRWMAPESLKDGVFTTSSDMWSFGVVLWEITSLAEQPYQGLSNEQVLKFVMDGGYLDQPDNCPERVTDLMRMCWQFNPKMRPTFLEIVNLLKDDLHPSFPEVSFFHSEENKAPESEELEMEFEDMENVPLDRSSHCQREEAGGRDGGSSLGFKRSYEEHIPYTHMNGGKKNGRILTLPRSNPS
c-Kit, sequence (P10721 26-976): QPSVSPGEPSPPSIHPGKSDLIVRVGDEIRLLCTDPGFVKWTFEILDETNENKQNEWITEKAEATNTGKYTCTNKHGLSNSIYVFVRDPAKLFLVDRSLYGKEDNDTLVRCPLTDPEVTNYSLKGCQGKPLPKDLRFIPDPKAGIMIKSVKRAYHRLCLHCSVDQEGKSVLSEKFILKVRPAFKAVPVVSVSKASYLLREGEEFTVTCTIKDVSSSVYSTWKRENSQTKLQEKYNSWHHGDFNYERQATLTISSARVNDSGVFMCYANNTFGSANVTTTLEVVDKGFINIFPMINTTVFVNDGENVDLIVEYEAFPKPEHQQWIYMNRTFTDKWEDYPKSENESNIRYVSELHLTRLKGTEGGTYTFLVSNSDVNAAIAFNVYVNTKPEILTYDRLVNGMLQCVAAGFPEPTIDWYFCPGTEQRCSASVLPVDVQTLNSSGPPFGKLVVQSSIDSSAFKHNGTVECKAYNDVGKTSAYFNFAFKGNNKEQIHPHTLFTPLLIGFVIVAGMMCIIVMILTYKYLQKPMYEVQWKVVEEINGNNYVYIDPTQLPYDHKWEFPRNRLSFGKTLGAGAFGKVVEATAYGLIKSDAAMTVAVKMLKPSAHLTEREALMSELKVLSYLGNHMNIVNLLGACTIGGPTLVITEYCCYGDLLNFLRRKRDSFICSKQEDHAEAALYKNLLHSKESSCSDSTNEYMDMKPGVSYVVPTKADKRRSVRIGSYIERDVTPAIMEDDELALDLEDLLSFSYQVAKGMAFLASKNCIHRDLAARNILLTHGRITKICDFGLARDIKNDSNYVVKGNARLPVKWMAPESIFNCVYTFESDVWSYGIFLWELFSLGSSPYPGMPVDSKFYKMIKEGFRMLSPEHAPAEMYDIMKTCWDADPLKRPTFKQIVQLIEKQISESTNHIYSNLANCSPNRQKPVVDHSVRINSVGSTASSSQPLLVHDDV

| SMILES | inhibition of autophosphorylation of insulin receptor (insulin receptor) | inhibition of autophosphorylation of c-Kit (c-Kit) | inhibition of autophosphorylation of VEGF receptors (VEGF receptors) | RRLR compared to contralateral eyes in the same mice (C57BL/6 mice) | inhibition of autophosphorylation of c-erbB2 (c-erbB2) | inhibition of autophosphorylation of PDGF receptors (PDGF receptors) | inhibition of phosphorylation by the kinase domain of human VEGF receptor 1 (Flt-1) | inhibition of autophosphorylation of other receptors tested including VEGF receptors [1] | inhibitory activity of other RTKs including VEGF receptors [2] |
| --- | --- | --- | --- | --- | --- | --- | --- | --- | --- |
| Clc1ccc(Nc2nnc(Cc3ccncc3)c3ccccc23)cc1 [PTK 787] | poor inhibitor | inhibits autophosphorylation | inhibits autophosphorylation | not a significant difference | poor inhibitor | inhibits autophosphorylation | good inhibitor | – | – |
| Cc1ccc(NC(=O)c2ccc(CN3CCN(C)CC3)cc2)cc1Nc1nccc(-c2cccnc2)n1 [CGP 57 148] | – | – | – | – | – | potent inhibitors | – | poor inhibitors | little or no inhibitory activity |
| Cc1ccc(NC(=O)c2ccccc2)cc1Nc1nccc(-c2cccnc2)n1 [CGP 53 716] | – | – | – | – | – | potent inhibitors | – | poor inhibitors | little or no inhibitory activity |

Reference: US20040102444A1, “Method for delivering drugs to the retina” (priority 2002, published 2004)
